From patent US10405547B2, “Substituted cyclic amides as herbicides” (FMC Corporation, priority 2015, dated 2019)

Columns and labels:
Type in all cases: in vivo
[1] = system: barnyardgrass (Echinochloa crus-galli); assay: Test A preemergence, barnyardgrass; conditions: 0 to 100 scale (0 no effect, 100 complete control)
Method in brief: (§1)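 Visual injury on a 0 to 100 scale, about 10 days post-spray in the greenhouse. Postemergence plants measured 2–10 cm at one to two leaves; preemergence pots received a directed soil spray. Soil was a loam–sand blend.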

[2] = system: ryegrass, Italian (Lolium multiflorum); assay: Test A preemergence, Italian ryegrass; conditions: 0 to 100 scale (0 no effect, 100 complete control)
Method in brief: as §1

[3] = system: ryegrass, Italian (Lolium multiflorum); assay: Test A postemergence, Italian ryegrass; conditions: visual injury, 0 to 100 scale (0 no effect, 100 complete control), approximately 10 days
Method in brief: as §1

[4] = system: kochia (Kochia scoparia); assay: Test A postemergence, kochia; conditions: visual injury, 0 to 100 scale (0 no effect, 100 complete control), approximately 10 days
Method in brief: as §1

[5] = system: ragweed (common ragweed, Ambrosia elatior); assay: Test A preemergence, ragweed; conditions: 0 to 100 scale (0 no effect, 100 complete control)
Method in brief: as §1

[6] = system: galium (catchweed bedstraw, Galium aparine); assay: Test A postemergence, galium; conditions: visual injury, 0 to 100 scale (0 no effect, 100 complete control), approximately 10 days
Method in brief: as §1

[7] = system: kochia (Kochia scoparia); assay: Test A preemergence, kochia; conditions: 0 to 100 scale (0 no effect, 100 complete control)
Method in brief: as §1

[8] = system: sedge, umbrella (small-flower umbrella sedge, Cyperus difformis); assay: Test B flooded paddy test, umbrella sedge; conditions: applied to paddy water, visual rating after 13 to 15 days, scale 0 (no effect) to 100 (complete control)
Method in brief: (§2)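 Compound was added to standing water 3 cm above soil, flood maintained, and plants held in a greenhouse before visual scoring against controls at 13 to 15 days.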

[9] = system: ducksalad (Heteranthera limosa); assay: Test B flooded paddy test, ducksalad; conditions: applied to paddy water, visual rating after 13 to 15 days, scale 0 (no effect) to 100 (complete control)
Method in brief: as §2

[10] = system: wheat (Triticum aestivum); assay: Test A postemergence, wheat; conditions: visual injury, 0 to 100 scale (0 no effect, 100 complete control), approximately 10 days
Method in brief: as §1

[11] = system: barnyardgrass (Echinochloa crus-galli); assay: Test A postemergence, barnyardgrass; conditions: visual injury, 0 to 100 scale (0 no effect, 100 complete control), approximately 10 days
Method in brief: as §1

[12] = system: pigweed (Amaranthus retroflexus); assay: Test A preemergence, pigweed; conditions: 0 to 100 scale (0 no effect, 100 complete control)
Method in brief: as §1

[13] = system: rice (Oryza sativa); assay: Test B flooded paddy test, rice; conditions: applied to paddy water, visual rating after 13 to 15 days, scale 0 (no effect) to 100 (complete control)
Method in brief: as §2

[14] = system: foxtail, giant (Setaria faberii); assay: Test A preemergence, giant foxtail; conditions: 0 to 100 scale (0 no effect, 100 complete control)
Method in brief: as §1

[15] = system: barnyardgrass (Echinochloa crus-galli); assay: Test B flooded paddy test, barnyardgrass; conditions: applied to paddy water, visual rating after 13 to 15 days, scale 0 (no effect) to 100 (complete control)
Method in brief: as §2

[16] = system: blackgrass (Alopecurus myosuroides); assay: Test A postemergence, blackgrass; conditions: visual injury, 0 to 100 scale (0 no effect, 100 complete control), approximately 10 days
Method in brief: as §1

[17] = system: pigweed (Amaranthus retroflexus); assay: Test A postemergence, pigweed; conditions: visual injury, 0 to 100 scale (0 no effect, 100 complete control), approximately 10 days
Method in brief: as §1

[18] = system: ragweed (common ragweed, Ambrosia elatior); assay: Test A postemergence, ragweed; conditions: visual injury, 0 to 100 scale (0 no effect, 100 complete control), approximately 10 days
Method in brief: as §1

[19] = system: corn (Zea mays); assay: Test A postemergence, corn; conditions: visual injury, 0 to 100 scale (0 no effect, 100 complete control), approximately 10 days
Method in brief: as §1

[20] = system: foxtail, giant (Setaria faberii); assay: Test A postemergence, giant foxtail; conditions: visual injury, 0 to 100 scale (0 no effect, 100 complete control), approximately 10 days
Method in brief: as §1

Row | Compound | Plant response rating, Barnyardgrass ([1]; 125 g ai/ha) | Plant response rating, Barnyardgrass ([1]; 500 g ai/ha) | Plant response rating, Ryegrass, Italian ([2]; 125 g ai/ha) | Plant response rating, Ryegrass, Italian ([2]; 500 g ai/ha) | Plant response rating, Ryegrass, Italian ([3]; 125 g ai/ha) | Plant response rating, Ryegrass, Italian ([3]; 500 g ai/ha) | Plant response rating, Kochia ([4]; 125 g ai/ha) | Plant response rating, Kochia ([4]; 500 g ai/ha) | Plant response rating, Ragweed ([5]; 125 g ai/ha) | Plant response rating, Ragweed ([5]; 500 g ai/ha) | Plant response rating, Galium ([6]; 125 g ai/ha) | Plant response rating, Galium ([6]; 500 g ai/ha) | Plant response rating, Kochia ([7]; 125 g ai/ha) | Plant response rating, Kochia ([7]; 500 g ai/ha) | Plant response rating, Wheat ([10]; 125 g ai/ha) | Plant response rating, Wheat ([10]; 500 g ai/ha) | Plant response rating, Barnyardgrass ([11]; 125 g ai/ha) | Plant response rating, Barnyardgrass ([11]; 500 g ai/ha) | Plant response rating, Pigweed ([12]; 125 g ai/ha) | Plant response rating, Pigweed ([12]; 500 g ai/ha) | further results
1 | O=C1NCC(c2cccc(OCc3ccco3)c2)C1C(=O)Nc1ccccc1Cl (stereo not drawn) [Compound 1] | 0 | 0 | 0 | 0 | 0 | 0 | 0 | 0 | 0 | 0 | 0 | 0 | 0 | 0 | 0 | 0 | 0 | 0 | 0 | 0 | Plant response rating, Sedge, Umbrella (Flood) ([8]; 250 g ai/ha): 30; Plant response rating, Ducksalad (Flood) ([9]; 250 g ai/ha): 65; Plant response rating, Rice (Flood) ([13]; 250 g ai/ha): 0; Plant response rating, Foxtail, Giant ([14]; 125 g ai/ha): 0; Plant response rating, Foxtail, Giant ([14]; 500 g ai/ha): 0; Plant response rating, Barnyardgrass (Flood) ([15]; 250 g ai/ha): 0; Plant response rating, Blackgrass ([16]; 125 g ai/ha): 0; Plant response rating, Blackgrass ([16]; 500 g ai/ha): 0; Plant response rating, Pigweed ([17]; 125 g ai/ha): 0; Plant response rating, Pigweed ([17]; 500 g ai/ha): 0; Plant response rating, Ragweed ([18]; 125 g ai/ha): 0; Plant response rating, Ragweed ([18]; 500 g ai/ha): 30; Plant response rating, Corn ([19]; 125 g ai/ha): 0; Plant response rating, Corn ([19]; 500 g ai/ha): 0; Plant response rating, Foxtail, Giant ([20]; 125 g ai/ha): 0; Plant response rating, Foxtail, Giant ([20]; 500 g ai/ha): 0
2 | O=C1NCC(c2cccc(OCC3OCCO3)c2)C1C(=O)Nc1ccccc1Cl (stereo not drawn) [Compound 6] | 20 | 80 | 0 | 0 | 0 | 0 | 0 | 0 | 0 | 20 | 0 | 0 | 0 | 0 | 0 | 20 | 0 | 70 | 60 | 50 | Plant response rating, Sedge, Umbrella (Flood) ([8]; 250 g ai/ha): 0; Plant response rating, Ducksalad (Flood) ([9]; 250 g ai/ha): 0; Plant response rating, Rice (Flood) ([13]; 250 g ai/ha): 0; Plant response rating, Foxtail, Giant ([14]; 125 g ai/ha): 70; Plant response rating, Foxtail, Giant ([14]; 500 g ai/ha): 90; Plant response rating, Barnyardgrass (Flood) ([15]; 250 g ai/ha): 0; Plant response rating, Blackgrass ([16]; 125 g ai/ha): 0; Plant response rating, Blackgrass ([16]; 500 g ai/ha): 20; Plant response rating, Pigweed ([17]; 125 g ai/ha): 0; Plant response rating, Pigweed ([17]; 500 g ai/ha): 0; Plant response rating, Ragweed ([18]; 125 g ai/ha): 0; Plant response rating, Ragweed ([18]; 500 g ai/ha): 0; Plant response rating, Corn ([19]; 125 g ai/ha): 0; Plant response rating, Corn ([19]; 500 g ai/ha): 20; Plant response rating, Foxtail, Giant ([20]; 125 g ai/ha): 0; Plant response rating, Foxtail, Giant ([20]; 500 g ai/ha): 70
3 | O=C1NCC(c2cccc(OCC3CC3)c2)C1C(=O)Nc1ccccc1Cl (stereo not drawn) [Compound 4] | 60 | 90 | 0 | 20 | 0 | 40 | 0 | 0 | 0 | 0 | 0 | 0 | 0 | 30 | 0 | 0 | 40 | 80 | 0 | 20 | Plant response rating, Sedge, Umbrella (Flood) ([8]; 250 g ai/ha): 0; Plant response rating, Ducksalad (Flood) ([9]; 250 g ai/ha): 0; Plant response rating, Rice (Flood) ([13]; 250 g ai/ha): 0; Plant response rating, Foxtail, Giant ([14]; 125 g ai/ha): 70; Plant response rating, Foxtail, Giant ([14]; 500 g ai/ha): 90; Plant response rating, Barnyardgrass (Flood) ([15]; 250 g ai/ha): 0; Plant response rating, Blackgrass ([16]; 125 g ai/ha): 0; Plant response rating, Blackgrass ([16]; 500 g ai/ha): 40; Plant response rating, Pigweed ([17]; 125 g ai/ha): 0; Plant response rating, Pigweed ([17]; 500 g ai/ha): 30; Plant response rating, Ragweed ([18]; 125 g ai/ha): 0; Plant response rating, Ragweed ([18]; 500 g ai/ha): 40; Plant response rating, Corn ([19]; 125 g ai/ha): 0; Plant response rating, Corn ([19]; 500 g ai/ha): 0; Plant response rating, Foxtail, Giant ([20]; 125 g ai/ha): 40; Plant response rating, Foxtail, Giant ([20]; 500 g ai/ha): 80
4 | O=C1NCC(c2cccc(OCc3ccccc3)c2)C1C(=O)Nc1ccc(F)c(F)c1F (stereo not drawn) [Compound 66] | 0 | 0 | 0 | 0 | 0 | 0 | 0 | 0 | 0 | 0 | 0 | 0 | 0 | 0 | 0 | 0 | 0 | 0 | 0 | 0 | Plant response rating, Sedge, Umbrella (Flood) ([8]; 500 g ai/ha): 0; Plant response rating, Ducksalad (Flood) ([9]; 500 g ai/ha): 0; Plant response rating, Rice (Flood) ([13]; 500 g ai/ha): 0; Plant response rating, Foxtail, Giant ([14]; 125 g ai/ha): 0; Plant response rating, Foxtail, Giant ([14]; 500 g ai/ha): 0; Plant response rating, Barnyardgrass (Flood) ([15]; 500 g ai/ha): 0; Plant response rating, Blackgrass ([16]; 125 g ai/ha): 0; Plant response rating, Blackgrass ([16]; 500 g ai/ha): 0; Plant response rating, Pigweed ([17]; 125 g ai/ha): 0; Plant response rating, Pigweed ([17]; 500 g ai/ha): 0; Plant response rating, Ragweed ([18]; 125 g ai/ha): 0; Plant response rating, Ragweed ([18]; 500 g ai/ha): 0; Plant response rating, Corn ([19]; 125 g ai/ha): 0; Plant response rating, Corn ([19]; 500 g ai/ha): 0; Plant response rating, Foxtail, Giant ([20]; 125 g ai/ha): 0; Plant response rating, Foxtail, Giant ([20]; 500 g ai/ha): 0
